Paper PMC4457528, “Identification of Novel Small Molecule Inhibitors of Oncogenic RET Kinase” (PLoS ONE, 2015)
Read-outs that look alike come from different tables or passages of the source.

How the values were obtained:
Test in all cases: KinomeScan kinase panel, single concentration 10 µM
Format in all cases: binding
KinomeScan kinase panel [1] = target: T1, KinomeScan kinase panel (Homo sapiens, UniProt P45984); settings: JNK2, 10 µM
T1 construct: purchased DiscoveRx (KinomeScan)

KinomeScan kinase panel [2] = target: T2, KinomeScan kinase panel (Homo sapiens, UniProt P0C1S8); settings: kinase WEE2; 10 µM; read-out: score (%)
T2 construct: purchased DiscoveRx (KinomeScan)

KinomeScan kinase panel [3] = target: T3, KinomeScan kinase panel (Homo sapiens, UniProt P16591); settings: FER, 10 µM; read-out: score (%)
T3 construct: purchased DiscoveRx (KinomeScan)

KinomeScan kinase panel [4] = target: T4, KinomeScan kinase panel (Homo sapiens, UniProt Q9UF33); settings: EPHA6, 10 µM; read-out: score (%)
T4 construct: purchased DiscoveRx (KinomeScan)
T4 sequence (Q9UF33 23-1036): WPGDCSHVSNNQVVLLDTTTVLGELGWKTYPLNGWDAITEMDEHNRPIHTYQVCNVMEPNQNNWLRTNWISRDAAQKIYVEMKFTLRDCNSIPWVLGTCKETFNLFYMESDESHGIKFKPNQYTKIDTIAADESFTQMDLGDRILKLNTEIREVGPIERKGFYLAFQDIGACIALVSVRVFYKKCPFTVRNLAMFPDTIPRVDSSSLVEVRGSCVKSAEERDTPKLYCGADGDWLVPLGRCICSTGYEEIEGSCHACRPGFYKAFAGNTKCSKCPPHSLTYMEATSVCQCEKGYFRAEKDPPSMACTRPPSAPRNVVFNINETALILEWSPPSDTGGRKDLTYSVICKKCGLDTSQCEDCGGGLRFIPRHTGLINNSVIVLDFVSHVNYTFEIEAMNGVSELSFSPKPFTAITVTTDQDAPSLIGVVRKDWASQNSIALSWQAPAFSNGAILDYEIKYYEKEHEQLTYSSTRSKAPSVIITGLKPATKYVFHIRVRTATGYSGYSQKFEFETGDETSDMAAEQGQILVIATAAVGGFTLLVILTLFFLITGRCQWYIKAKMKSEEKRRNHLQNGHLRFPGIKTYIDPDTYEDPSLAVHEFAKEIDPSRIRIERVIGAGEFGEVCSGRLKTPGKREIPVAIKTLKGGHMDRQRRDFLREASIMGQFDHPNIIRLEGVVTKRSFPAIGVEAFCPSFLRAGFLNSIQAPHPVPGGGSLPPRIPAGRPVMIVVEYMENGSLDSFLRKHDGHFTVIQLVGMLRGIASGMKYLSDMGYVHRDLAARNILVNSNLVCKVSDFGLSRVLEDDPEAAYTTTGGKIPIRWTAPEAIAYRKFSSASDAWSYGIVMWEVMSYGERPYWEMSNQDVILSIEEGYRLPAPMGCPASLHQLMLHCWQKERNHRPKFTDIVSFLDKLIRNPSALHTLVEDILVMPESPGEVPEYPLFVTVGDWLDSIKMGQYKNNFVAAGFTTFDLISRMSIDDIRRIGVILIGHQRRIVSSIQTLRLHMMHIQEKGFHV

KinomeScan kinase panel [5] = target: T5, KinomeScan kinase panel (Homo sapiens, UniProt Q8TDR2); settings: read-out: score (%)
T5 construct: purchased DiscoveRx (KinomeScan)

KinomeScan kinase panel [6] = target: T6, KinomeScan kinase panel (Homo sapiens, UniProt Q9UQM7); settings: CAMK2A, 10 µM; read-out: score (%)
T6 construct: purchased DiscoveRx (KinomeScan)

KinomeScan kinase panel [7] = target: T7, KinomeScan kinase panel (Homo sapiens, UniProt P78368); settings: CSNK1G2, 10 µM
T7 construct: purchased DiscoveRx (KinomeScan)

KinomeScan kinase panel [8] = target: T8, KinomeScan kinase panel (Homo sapiens, UniProt Q9BUB5); settings: MKNK1, 10 µM; read-out: score (%)
T8 construct: purchased DiscoveRx (KinomeScan)

KinomeScan kinase panel [9] = target: T9, KinomeScan kinase panel (Homo sapiens, UniProt P46734); settings: MEK3, 10 µM; read-out: score (%)
T9 construct: purchased DiscoveRx (KinomeScan)
T9 sequence (P46734 1-347): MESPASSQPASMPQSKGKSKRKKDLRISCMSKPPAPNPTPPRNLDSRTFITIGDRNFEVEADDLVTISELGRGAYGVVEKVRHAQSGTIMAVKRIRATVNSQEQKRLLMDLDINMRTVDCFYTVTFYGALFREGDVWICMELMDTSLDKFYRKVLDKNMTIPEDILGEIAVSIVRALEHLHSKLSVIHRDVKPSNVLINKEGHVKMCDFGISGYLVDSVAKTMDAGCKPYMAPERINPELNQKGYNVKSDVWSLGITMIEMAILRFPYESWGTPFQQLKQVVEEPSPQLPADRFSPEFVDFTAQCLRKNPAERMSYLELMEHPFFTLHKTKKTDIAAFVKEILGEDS

KinomeScan kinase panel [10] = target: T10, KinomeScan kinase panel (Homo sapiens, UniProt P19525); settings: 10 µM
T10 construct: purchased DiscoveRx (KinomeScan)

KinomeScan kinase panel [11] = target: T11, KinomeScan kinase panel (Homo sapiens, UniProt Q9BZL6); settings: read-out: score (%)
T11 construct: purchased DiscoveRx (KinomeScan)
T11 sequence (Q9BZL6 1-878): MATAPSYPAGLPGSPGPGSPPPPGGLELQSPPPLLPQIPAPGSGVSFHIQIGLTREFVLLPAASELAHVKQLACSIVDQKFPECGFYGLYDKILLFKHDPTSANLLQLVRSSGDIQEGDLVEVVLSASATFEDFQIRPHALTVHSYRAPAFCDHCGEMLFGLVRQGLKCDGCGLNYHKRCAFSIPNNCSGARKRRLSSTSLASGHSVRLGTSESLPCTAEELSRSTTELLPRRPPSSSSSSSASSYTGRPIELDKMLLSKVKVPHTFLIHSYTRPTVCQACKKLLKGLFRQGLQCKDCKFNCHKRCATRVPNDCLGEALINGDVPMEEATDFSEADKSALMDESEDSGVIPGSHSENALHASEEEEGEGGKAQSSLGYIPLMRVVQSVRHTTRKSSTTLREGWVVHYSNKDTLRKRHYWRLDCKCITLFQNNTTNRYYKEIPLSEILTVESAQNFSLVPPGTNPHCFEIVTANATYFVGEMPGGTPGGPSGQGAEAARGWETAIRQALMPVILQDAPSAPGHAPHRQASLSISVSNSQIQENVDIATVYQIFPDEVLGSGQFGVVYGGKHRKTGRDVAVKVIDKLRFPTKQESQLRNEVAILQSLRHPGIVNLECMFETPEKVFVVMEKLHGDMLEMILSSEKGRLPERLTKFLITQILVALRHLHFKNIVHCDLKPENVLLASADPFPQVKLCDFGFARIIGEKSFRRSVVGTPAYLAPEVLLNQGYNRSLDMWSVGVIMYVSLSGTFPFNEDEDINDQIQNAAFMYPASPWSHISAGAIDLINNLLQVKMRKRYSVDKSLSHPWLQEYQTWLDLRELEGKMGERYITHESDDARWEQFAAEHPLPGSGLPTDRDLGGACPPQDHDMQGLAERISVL

T8 sequence (Q9BUB5 whole entry): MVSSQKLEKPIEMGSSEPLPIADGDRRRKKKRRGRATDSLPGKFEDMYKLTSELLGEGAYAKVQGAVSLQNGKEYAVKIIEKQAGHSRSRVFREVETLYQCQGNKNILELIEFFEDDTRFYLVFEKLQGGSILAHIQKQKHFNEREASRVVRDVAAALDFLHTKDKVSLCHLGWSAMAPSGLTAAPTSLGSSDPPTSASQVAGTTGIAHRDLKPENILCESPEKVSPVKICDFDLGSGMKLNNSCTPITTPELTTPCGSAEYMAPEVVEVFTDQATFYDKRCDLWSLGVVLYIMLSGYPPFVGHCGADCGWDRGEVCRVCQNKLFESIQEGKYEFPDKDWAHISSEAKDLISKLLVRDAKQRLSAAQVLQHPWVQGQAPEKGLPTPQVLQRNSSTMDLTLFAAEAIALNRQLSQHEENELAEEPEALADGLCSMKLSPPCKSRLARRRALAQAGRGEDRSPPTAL
T5 sequence (Q8TDR2 whole entry): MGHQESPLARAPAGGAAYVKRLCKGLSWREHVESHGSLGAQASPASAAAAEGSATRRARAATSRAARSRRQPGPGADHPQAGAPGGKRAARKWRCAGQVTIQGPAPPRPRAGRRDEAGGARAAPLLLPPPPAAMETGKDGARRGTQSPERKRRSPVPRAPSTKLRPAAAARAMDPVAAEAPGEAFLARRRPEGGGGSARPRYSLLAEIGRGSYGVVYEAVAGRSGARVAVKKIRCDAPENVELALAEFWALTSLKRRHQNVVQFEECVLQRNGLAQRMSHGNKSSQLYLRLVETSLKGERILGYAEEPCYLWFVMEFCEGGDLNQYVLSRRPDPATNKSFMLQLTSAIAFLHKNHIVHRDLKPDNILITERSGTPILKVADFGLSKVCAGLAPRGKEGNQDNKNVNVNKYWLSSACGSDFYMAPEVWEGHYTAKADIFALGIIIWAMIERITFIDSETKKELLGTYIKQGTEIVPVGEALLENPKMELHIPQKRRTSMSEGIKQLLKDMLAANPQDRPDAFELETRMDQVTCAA
T2 sequence (P0C1S8 whole entry): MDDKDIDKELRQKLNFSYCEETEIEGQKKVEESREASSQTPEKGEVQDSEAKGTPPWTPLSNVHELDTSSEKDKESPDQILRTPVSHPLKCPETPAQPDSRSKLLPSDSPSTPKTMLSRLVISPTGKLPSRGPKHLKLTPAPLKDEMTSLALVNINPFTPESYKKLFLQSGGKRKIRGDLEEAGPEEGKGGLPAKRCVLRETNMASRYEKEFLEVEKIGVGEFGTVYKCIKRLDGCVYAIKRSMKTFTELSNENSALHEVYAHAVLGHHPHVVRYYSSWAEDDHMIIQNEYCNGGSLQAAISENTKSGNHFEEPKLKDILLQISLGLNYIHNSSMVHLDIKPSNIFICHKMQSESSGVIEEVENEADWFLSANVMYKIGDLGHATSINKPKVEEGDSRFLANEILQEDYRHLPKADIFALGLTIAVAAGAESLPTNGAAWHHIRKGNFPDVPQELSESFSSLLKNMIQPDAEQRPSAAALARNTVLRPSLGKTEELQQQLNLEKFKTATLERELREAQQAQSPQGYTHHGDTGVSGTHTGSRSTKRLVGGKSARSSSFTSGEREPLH
T1 sequence (P45984 whole entry): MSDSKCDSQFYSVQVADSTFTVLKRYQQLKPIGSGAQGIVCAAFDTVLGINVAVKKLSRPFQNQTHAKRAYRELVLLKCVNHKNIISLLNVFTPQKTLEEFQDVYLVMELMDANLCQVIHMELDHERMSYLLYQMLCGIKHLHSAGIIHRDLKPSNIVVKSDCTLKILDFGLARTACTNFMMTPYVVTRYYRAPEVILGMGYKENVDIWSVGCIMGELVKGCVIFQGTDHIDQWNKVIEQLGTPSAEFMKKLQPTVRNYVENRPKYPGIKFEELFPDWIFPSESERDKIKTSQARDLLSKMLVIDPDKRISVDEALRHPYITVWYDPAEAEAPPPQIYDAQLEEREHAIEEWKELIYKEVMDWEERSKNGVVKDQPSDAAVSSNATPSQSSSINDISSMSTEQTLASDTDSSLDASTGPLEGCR
T10 sequence (P19525 whole entry): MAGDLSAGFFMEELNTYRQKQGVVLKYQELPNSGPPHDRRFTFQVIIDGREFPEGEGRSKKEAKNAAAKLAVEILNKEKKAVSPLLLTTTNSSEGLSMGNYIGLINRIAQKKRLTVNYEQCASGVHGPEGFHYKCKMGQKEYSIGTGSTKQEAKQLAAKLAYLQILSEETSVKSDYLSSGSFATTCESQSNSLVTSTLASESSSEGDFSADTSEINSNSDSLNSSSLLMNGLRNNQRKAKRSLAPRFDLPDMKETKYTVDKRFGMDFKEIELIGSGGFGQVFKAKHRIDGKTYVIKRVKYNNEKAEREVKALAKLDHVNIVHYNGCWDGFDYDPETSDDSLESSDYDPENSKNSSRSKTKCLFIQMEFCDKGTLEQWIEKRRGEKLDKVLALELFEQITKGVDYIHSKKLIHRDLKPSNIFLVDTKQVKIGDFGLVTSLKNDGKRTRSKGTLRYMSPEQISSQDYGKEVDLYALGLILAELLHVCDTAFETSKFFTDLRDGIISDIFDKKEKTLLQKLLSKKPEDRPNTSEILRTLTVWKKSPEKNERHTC
T7 sequence (P78368 whole entry): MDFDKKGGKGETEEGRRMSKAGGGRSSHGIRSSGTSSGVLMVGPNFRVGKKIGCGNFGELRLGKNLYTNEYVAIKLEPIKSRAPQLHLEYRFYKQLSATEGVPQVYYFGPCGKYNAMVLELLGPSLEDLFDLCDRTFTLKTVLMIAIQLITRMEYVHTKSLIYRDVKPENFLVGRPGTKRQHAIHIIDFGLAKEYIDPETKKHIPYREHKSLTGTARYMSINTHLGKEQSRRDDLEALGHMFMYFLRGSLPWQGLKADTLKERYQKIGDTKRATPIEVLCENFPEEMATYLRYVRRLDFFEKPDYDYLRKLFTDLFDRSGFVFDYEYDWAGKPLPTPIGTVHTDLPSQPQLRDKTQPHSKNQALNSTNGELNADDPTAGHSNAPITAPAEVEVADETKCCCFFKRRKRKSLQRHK
T6 sequence (Q9UQM7 whole entry): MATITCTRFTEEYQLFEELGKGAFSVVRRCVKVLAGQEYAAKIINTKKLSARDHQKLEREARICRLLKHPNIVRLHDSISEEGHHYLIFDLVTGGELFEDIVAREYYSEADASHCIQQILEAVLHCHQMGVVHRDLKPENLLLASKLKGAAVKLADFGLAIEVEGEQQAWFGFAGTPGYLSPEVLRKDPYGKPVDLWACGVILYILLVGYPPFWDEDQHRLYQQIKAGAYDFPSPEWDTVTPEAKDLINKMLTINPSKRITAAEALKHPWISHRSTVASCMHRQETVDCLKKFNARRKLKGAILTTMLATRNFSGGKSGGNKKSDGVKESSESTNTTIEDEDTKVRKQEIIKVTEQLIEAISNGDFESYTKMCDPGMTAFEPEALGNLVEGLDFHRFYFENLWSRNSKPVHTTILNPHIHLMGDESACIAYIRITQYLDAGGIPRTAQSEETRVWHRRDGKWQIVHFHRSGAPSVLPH
T3 sequence (P16591 whole entry): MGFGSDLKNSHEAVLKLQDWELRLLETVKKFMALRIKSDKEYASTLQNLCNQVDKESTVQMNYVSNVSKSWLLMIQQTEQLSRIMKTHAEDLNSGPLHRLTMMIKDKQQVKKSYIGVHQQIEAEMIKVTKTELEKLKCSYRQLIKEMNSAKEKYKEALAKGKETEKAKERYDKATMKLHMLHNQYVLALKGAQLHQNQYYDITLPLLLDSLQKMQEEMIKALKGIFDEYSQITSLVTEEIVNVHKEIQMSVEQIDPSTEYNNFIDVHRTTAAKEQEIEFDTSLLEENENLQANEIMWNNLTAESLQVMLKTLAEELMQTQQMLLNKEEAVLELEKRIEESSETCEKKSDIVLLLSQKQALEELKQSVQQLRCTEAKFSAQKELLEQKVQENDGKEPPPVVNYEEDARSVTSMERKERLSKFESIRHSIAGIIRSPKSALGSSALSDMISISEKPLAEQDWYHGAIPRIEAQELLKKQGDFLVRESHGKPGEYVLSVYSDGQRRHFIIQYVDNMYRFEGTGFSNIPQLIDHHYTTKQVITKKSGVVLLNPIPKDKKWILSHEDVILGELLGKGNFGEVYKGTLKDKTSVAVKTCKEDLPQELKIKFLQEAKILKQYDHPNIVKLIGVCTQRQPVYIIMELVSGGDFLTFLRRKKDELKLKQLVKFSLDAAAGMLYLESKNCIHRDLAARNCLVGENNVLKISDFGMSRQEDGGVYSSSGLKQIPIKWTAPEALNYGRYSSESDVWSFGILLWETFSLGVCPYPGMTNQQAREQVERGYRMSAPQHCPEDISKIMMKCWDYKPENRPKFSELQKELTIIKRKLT

With CCN1CCN(Cc2ccc(NC(=O)c3ccc(C)c(NC(=O)c4cncc(-c5cccs5)c4)c3)cc2C(F)(F)F)CC1 [ALW-II-41-27] the “score (%)” value (KinomeScan kinase panel [1]) was 0.25%, the remaining binding at 10 µM (KinomeScan kinase panel [2]) was greater than 30% and the remaining binding at 10 µM (KinomeScan kinase panel [3]) was 5.6%. The remaining binding at 10 µM (KinomeScan kinase panel [4]) was 28%, the remaining binding at 10 µM (KinomeScan kinase panel [5]; kinase STK35, 10 µM) was 21% and the remaining binding at 10 µM (KinomeScan kinase panel [6]) was greater than 30%. The “score (%)” value (KinomeScan kinase panel [7]) was 20%, the remaining binding at 10 µM (KinomeScan kinase panel [8]) was 14% and the remaining binding at 10 µM (KinomeScan kinase panel [9]) was greater than 30%. For the same compound, the “score (%)” value (KinomeScan kinase panel [10]; PRKR) was “nb (Hits values higher than 30% were considered negative (no binding: nb))” and the remaining binding at 10 µM (KinomeScan kinase panel [11]; PRKD2, 10 µM) was greater than 30%.
With CCN1CCN(Cc2ccc(NC(=O)c3ccc(C)c(/C=C/c4cnc5[nH]ccc5c4Cl)c3)cc2C(F)(F)F)CC1 [HG-6-63-01, (E)-3-(2-(4-chloro-1H-pyrrolo[2,3-b]pyridin-5-yl)vinyl)-N-(4-((4-ethylpiperazin-1-yl)methyl)-3-(trifluoromethyl)phenyl)-4-methylbenzamide] the “score (%)” value (KinomeScan kinase panel [1]) was 1.1%, the remaining binding at 10 µM (KinomeScan kinase panel [2]) was 15% and the remaining binding at 10 µM (KinomeScan kinase panel [3]) was 14%. It also gave a remaining binding at 10 µM (KinomeScan kinase panel [4]) of 6.7%, a remaining binding at 10 µM (KinomeScan kinase panel [5]; STK35, 10 µM) greater than 30% and a remaining binding at 10 µM (KinomeScan kinase panel [6]) greater than 30%. For the same compound, the “score (%)” value (KinomeScan kinase panel [7]) was “nb (Hits values higher than 30% were considered negative (no binding: nb))”, the remaining binding at 10 µM (KinomeScan kinase panel [8]) was greater than 30% and the remaining binding at 10 µM (KinomeScan kinase panel [9]) was greater than 30%. For the same compound, the “score (%)” value (KinomeScan kinase panel [10]; PRKR) was “nb (Hits values higher than 30% were considered negative (no binding: nb))” and the remaining binding at 10 µM (KinomeScan kinase panel [11]; PRKD2, 10 µM) was 32%.
CCN1CCN(Cc2ccc(NC(=O)c3ccc(C)c(C#Cc4cccnc4)c3)cc2C(F)(F)F)CC1 [XMD15-44] was tested, and the “score (%)” value (KinomeScan kinase panel [1]) was 0%, the remaining binding at 10 µM (KinomeScan kinase panel [2]) was 100% and the remaining binding at 10 µM (KinomeScan kinase panel [3]) was 11%. The remaining binding at 10 µM (KinomeScan kinase panel [4]) was 0%, the remaining binding at 10 µM (KinomeScan kinase panel [5]; kinase STK35, 10 µM) was 1.6% and the remaining binding at 10 µM (KinomeScan kinase panel [6]) was greater than 30%. For the same compound, the “score (%)” value (KinomeScan kinase panel [7]) was “nb (Hits values higher than 30% were considered negative (no binding: nb))”, the remaining binding at 10 µM (KinomeScan kinase panel [8]) was 0.25% and the remaining binding at 10 µM (KinomeScan kinase panel [9]) was greater than 30%. The “score (%)” value (KinomeScan kinase panel [10]; kinase PRKR) was 66% and the remaining binding at 10 µM (KinomeScan kinase panel [11]; kinase PRKD2, 10 µM) was 56%.
